# According to paper PMC11206988, “Study on the Effect of Pharmaceutical Excipient PEG400 on the Pharmacokinetics of Baicalin in Cells Based on MRP2, MRP3, and BCRP Efflux Transporters” (Pharmaceutics, 2024):
# Where two headings read alike, the source gives them in different places.
# Key:
# Format in all cases: in vitro ADME
# BCRP = biological target: T1, BCRP (Homo sapiens, UniProt Q9UNQ0); assay: Transport of baicalin across MDCK II-BCRP cell monolayer (transwell); conditions: pH 7.4, MDCK II-BCRP
# T1 construct: expressed in transfected cells; host or cells: MDCK II
# T1 sequence (Q9UNQ0 1-655): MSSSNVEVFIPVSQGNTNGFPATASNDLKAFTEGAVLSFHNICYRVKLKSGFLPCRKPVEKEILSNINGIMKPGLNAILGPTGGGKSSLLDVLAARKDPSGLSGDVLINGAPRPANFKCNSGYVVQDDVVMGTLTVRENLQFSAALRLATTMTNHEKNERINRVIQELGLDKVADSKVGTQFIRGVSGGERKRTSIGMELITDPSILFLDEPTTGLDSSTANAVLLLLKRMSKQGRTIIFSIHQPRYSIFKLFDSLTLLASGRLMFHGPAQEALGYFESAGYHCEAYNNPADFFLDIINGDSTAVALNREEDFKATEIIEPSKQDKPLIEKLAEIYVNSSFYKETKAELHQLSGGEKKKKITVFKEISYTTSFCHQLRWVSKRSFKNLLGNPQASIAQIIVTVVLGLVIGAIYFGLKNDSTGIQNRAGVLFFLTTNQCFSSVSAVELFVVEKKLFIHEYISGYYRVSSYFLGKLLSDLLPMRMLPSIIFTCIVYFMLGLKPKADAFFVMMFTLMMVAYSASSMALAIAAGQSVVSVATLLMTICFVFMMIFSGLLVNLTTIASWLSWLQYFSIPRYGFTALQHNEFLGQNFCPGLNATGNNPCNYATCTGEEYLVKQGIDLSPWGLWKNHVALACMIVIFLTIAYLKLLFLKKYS
# Description: (§1) The cells were inoculated at a density of 0.5 mL (1 × 10^5) in the upper layer of the transwell plate (AP side), and the culture was changed daily after the lower layer was added with 1.5 mL of complete medium without cells every other day. After 5–7 days of growth, the supernatant was aspirated and discarded, and the cell monolayer was rinsed twice with 37 °C Hank’s Balanced Salt Solution (HBSS, pH 7.4). The electrical resistance of the cell monolayer compartments was measured with a resistivity meter (TEER), and the integrity of the cell monolayer was monitored using TEER. The differentiation of MDCK II-WT, MDCK II-MRP2, MDCK II-MRP3, and MDCK II-BCRP cells was examined by determining sodium fluorescein permeability prior to transit experiments. This was done in order to determine the integrity of the cell monolayer. When the TEER value of the cell monolayer was greater than 150 Ω·cm^2 and the MDCK II-MRP2, MDCK II-MRP3, and MDCK II-BCRP sodium fluorescein permeability was less than 0.5 × 10^−6 cm/s or the MDCK II-WT sodium fluorescein permeability was less than 1 × 10^−6 cm/s, the cell monolayer was considered intact and suitable for transit experiments. TEER = (TEERcell monolayer − TEERblank) × Aarea(1) wherein TEERcell monolayer is the resistance of the cell monolayer read directly from the Millicell ERS-2 resistivity meter, and TEERblank is the resistance read by inserting a blank HBSS (no cells) only. Aarea is the surface area of the filter membrane, 1.12 cm^2.
# (§2) In this experiment, a 100 μM baicalin solution (dissolved in HBSS) containing different concentrations of PEG400 (0.25%, 0.5%, and 1%) was employed as the test solution, while a solution without PEG400 was used as the blank test solution, which was added to AP or BL chambers, respectively. In the top to basolateral (AP-BL) transport experiment, the 0.5 mL sample added to the apical side (AP) was utilized as the supply room, and the HBSS preheated to 1.5 mL 37 °C was added to the basolateral (BL) as the receiving chamber. Conversely, in the basal low lateral to top (BL-AP) transport experiment, the 1.5 mL sample (dissolved in HBSS) was added to the BL side as the supply room, and the 0.5 mL preheated HBSS was added as a receiving room on the AP side. Once the aforementioned steps had been completed, the transwell was placed on a 37 °C thermostatic oscillator at 60 r/min, and 100 μL was withdrawn from the receiving cell or 10 μL from the supply chamber at 30, 60, 90, and 120 min, depending on the experiment, and replenished with an equal volume of blank 37 °C preheated HBSS. The samples were utilized to precipitate the proteins with 100 μL of methanol containing the internal standard for 10 min. After centrifugation at 16,000× g for 15 min at 4 °C, the supernatant was collected in a volume of 70 μL. The contents were determined by UPLC-MS/MS, and apparent permeability coefficients (PAPP) and efflux ratios (ER) were calculated.
# (§3) The formulas for calculating Papp and ER of monolayer and monolayer are as follows:(2) Papp=dQ/dt/AC0 wherein dQ/dt (ng/mL·s) is the transit rate (ng/mL·s); A is the membrane area (1.12 cm^2); and C0 (ng/mL) is the initial concentration of the sample in the supply chamber. ER = PappBL-AP/PappAP-BL (3) wherein PappBL-AP is the apparent permeability coefficient when the BL is added to the sample, and PappAP-BL is the apparent permeability coefficient when the sample is added at the top side (AP).
# MDCK II-MRP3 = biological target: T2, MDCK II-MRP3 (Homo sapiens, UniProt O15438); assay: Transport of baicalin across MDCK II-MRP3 cell monolayer (transwell); conditions: MDCK II-MRP3; high-concentration PEG400 group vs control group
# T2 construct: host or cells: MDCK II
# Description: as §1, §2, §3
# MRP3 = biological target: T3, MRP3 (Homo sapiens, UniProt O15438); assay: as above; conditions: human, pH 7.4, MDCK II-MRP3
# T3 construct: host or cells: MDCK II
# Description: as §1, §2, §3
# T3 sequence (O15438 whole entry): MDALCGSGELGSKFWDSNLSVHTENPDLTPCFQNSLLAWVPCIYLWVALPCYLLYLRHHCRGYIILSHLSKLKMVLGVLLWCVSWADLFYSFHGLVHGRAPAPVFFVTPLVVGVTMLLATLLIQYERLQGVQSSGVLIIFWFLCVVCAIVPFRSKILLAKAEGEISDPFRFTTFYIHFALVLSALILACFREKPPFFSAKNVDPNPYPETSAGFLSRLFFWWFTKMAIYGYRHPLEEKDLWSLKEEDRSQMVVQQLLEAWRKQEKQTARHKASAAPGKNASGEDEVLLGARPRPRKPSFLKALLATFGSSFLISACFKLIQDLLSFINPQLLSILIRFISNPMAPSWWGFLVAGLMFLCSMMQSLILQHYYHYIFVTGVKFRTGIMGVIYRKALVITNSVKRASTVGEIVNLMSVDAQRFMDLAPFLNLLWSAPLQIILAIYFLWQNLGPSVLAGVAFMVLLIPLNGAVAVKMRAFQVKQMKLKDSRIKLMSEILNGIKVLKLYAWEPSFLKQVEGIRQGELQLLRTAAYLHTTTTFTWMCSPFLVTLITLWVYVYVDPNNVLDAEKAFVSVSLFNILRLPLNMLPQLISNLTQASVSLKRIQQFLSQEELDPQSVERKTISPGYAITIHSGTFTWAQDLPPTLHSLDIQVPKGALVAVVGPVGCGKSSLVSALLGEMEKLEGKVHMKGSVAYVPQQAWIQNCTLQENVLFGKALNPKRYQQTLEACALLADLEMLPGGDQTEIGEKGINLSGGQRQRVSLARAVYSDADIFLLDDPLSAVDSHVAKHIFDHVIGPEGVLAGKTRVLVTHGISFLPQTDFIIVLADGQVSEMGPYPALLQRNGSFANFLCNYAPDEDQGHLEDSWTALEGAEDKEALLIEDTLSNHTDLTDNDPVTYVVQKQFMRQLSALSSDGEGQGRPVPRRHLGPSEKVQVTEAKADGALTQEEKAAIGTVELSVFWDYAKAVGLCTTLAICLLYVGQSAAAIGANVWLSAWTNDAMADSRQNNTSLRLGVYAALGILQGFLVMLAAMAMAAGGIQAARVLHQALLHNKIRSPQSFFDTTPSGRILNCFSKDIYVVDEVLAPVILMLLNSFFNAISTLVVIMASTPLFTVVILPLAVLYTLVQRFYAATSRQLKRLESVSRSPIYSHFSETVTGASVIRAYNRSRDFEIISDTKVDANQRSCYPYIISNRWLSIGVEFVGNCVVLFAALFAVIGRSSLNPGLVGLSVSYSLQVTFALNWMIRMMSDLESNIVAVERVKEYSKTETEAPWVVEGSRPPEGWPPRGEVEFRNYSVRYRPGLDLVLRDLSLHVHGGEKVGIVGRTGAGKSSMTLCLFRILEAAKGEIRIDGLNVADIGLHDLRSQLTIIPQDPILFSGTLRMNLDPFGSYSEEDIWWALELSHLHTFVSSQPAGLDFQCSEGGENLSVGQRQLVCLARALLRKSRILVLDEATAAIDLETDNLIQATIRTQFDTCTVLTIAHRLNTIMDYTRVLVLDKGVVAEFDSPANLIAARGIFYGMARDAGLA
# T2 sequence (O15438 whole entry): as above
smiles,measurement,setting,value
"O=C(O)[C@H]1O[C@@H](Oc2cc3oc(-c4ccccc4)cc(=O)c3c(O)c2O)[C@H](O)[C@@H](O)[C@@H]1O [BG, Baicalein-7-O-β-D-glucuronide]","Papp A→B at 120 min, 100 μM",BCRP; 100 μM BG + 0.25% PEG400,5.64 ± 0.48 ×10⁻⁶ cm/s
same,"Papp B→A at 120 min, 100 μM",BCRP; 100 μM BG + 0.25% PEG400,8.98 ± 0.42 ×10⁻⁶ cm/s
same,"efflux ratio at 120 min, 100 μM","BCRP; 100 μM BG + 0.25% PEG400, read-out: ER",1.59 ± 0.06
same,"Papp A→B at 120 min, 100 μM",BCRP; 100 μM BG + 0.5% PEG400,7.4 ± 0.43 ×10⁻⁶ cm/s
same,"Papp B→A at 120 min, 100 μM",BCRP; 100 μM BG + 0.5% PEG400,7.51 ± 0.47 ×10⁻⁶ cm/s
same,"efflux ratio at 120 min, 100 μM","BCRP; 100 μM BG + 0.5% PEG400, read-out: ER",1.02 ± 0.04
same,"Papp A→B at 120 min, 100 μM",BCRP; 100 μM BG + 1% PEG400,8.59 ± 0.19 ×10⁻⁶ cm/s
same,"Papp B→A at 120 min, 100 μM",BCRP; 100 μM BG + 1% PEG400,6.9 ± 0.04 ×10⁻⁶ cm/s
same,"efflux ratio at 120 min, 100 μM","BCRP; 100 μM BG + 1% PEG400, read-out: ER",0.8 ± 0.02
same,"Papp A→B at 120 min, 100 μM",BCRP; 100 μM BG alone,3.43 ± 0.07 ×10⁻⁶ cm/s
same,"Papp B→A at 120 min, 100 μM",BCRP; 100 μM BG alone,10.34 ± 0.02 ×10⁻⁶ cm/s
same,"efflux ratio at 120 min, 100 μM","BCRP; 100 μM BG alone, read-out: ER",3.01 ± 0.05
same,increase in the PAPPAP-BL/PAPP BL-AP ratio,MDCK II-MRP3,5.97 fold
same,"Papp A→B at 120 min, 100 μM",MRP3; 100 μM BG + 0.25% PEG400,1.06 ± 0.16 ×10⁻⁶ cm/s
same,"Papp B→A at 120 min, 100 μM",MRP3; 100 μM BG + 0.25% PEG400,1.04 ± 0.08 ×10⁻⁶ cm/s
same,"Papp A→B at 120 min, 100 μM",MRP3; 100 μM BG + 0.5% PEG400,1.77 ± 0.2 ×10⁻⁶ cm/s
same,"Papp B→A at 120 min, 100 μM",MRP3; 100 μM BG + 0.5% PEG400,0.85 ± 0.1 ×10⁻⁶ cm/s
same,"Papp A→B at 120 min, 100 μM",MRP3; 100 μM BG + 1% PEG400,2.65 ± 0.44 ×10⁻⁶ cm/s
same,"Papp B→A at 120 min, 100 μM",MRP3; 100 μM BG + 1% PEG400,0.72 ± 0.16 ×10⁻⁶ cm/s
same,"Papp A→B at 120 min, 100 μM",MRP3; 100 μM BG alone,0.74 ± 0.1 ×10⁻⁶ cm/s
same,"Papp B→A at 120 min, 100 μM",MRP3; 100 μM BG alone,1.18 ± 0.08 ×10⁻⁶ cm/s
